The experiment concerns trembling and head twitches induced by 5-hydroxytryptophan (5-HTP). Kind of experiment: Interaction with 5-hydroxytryptophan in association with an MAOI (nialamide). Format: in vivo, male mice. Conditions: for all the effects of 5-HTP: reference substances, in the presence of an MAOI; for head twitches: i.p., nialamide + (±)-5-HTP, male mice; for trembling: reference β-adrenergic stimulants, 5-HTP + MAOI. The method, then: The purpose of the procedure used is to investigate the activity of each product according to the invention as regards the trembling induced by 5-hydroxytryptophan (5-HTP) in association with an MAOI (in this case nialamide).
Each test product, in solution in distilled water, is administered intraperitoneally in a volume of 20 ml/kg to male mice.
Groups of 10 mice receive nialamide (20 mg/kg, administered gastrically) at time T-18 h, each test product at time T-0.5 h and then (±)-5-HTP (20 mg/kg, administered intraperitoneally) at time T. Immediately after the injection of the (±)-5-HTP, the mice are individually placed in transparent plastic boxes. The generalized trembling, the partial trembling and the head twitches are noted on a yes/no basis for 2 h.

As to `CC(N)Cc1ccccc1` (stereo not drawn) [amphetamine, reference compound], the “all the effects of 5-HTP” value was “potentiate all the effects of 5-HTP in the presence of an MAOI”.

Turning to `CNCCCN1c2ccccc2CCc2ccccc21` [desipramine, reference compound], the “all the effects of 5-HTP” value is “potentiate all the effects of 5-HTP in the presence of an MAOI”.

For `CCNC(C)Cc1cccc(C(F)(F)F)c1` (stereo not drawn) [fenfluramine, reference compound], the “all the effects of 5-HTP” value is “potentiate all the effects of 5-HTP in the presence of an MAOI”.

Turning to `CC(Cc1ccc(O)cc1)NCC(O)c1cc(O)cc(O)c1` (stereo not drawn) [fenoterol, reference compound], the head twitches result is “moderate potentiation of the head twitches” and the trembling entry is listed as “distinct potentiation of the trembling”.

As to `CC(C)NCC(O)c1ccc(O)c(O)c1` (stereo not drawn) [isoprenaline, reference compound], the head twitches entry is “distinct potentiation of the trembling and head twitches”; the trembling entry was “distinct potentiation of the trembling and head twitches”.

As to `CC(C)NCC(O)c1cc(O)cc(O)c1` (stereo not drawn) [ociprenaline, reference compound], the head twitches result is listed as “no modification of the trembling or head twitches” and the trembling entry was “no modification of the trembling or head twitches”.

Regarding `CC(NCCc1ccc(O)cc1)C(O)c1ccc(O)cc1` (stereo not drawn) [ritodrine, reference compound], the head twitches result is listed as “no modification of the head twitches” and the trembling entry is recorded as “moderate potentiation of the trembling”.

With `CC(C)(C)NCC(O)c1ccc(O)c(CO)c1` (stereo not drawn) [salbutamol, reference compound], the head twitches result is recorded as “no modification of the head twitches” and the trembling result was “moderate potentiation of the trembling”.

In the case of `CC(C)(C)NCC(O)c1cc(O)cc(O)c1` (stereo not drawn) [terbutaline, reference compound], the head twitches entry was “no modification of the trembling or head twitches” and the trembling entry was “no modification of the trembling or head twitches”.

The values are drawn from patent US4774248A, “Methods of treating depression and depressive states using 5-phenyl-1,4,5,6-tetrahydropyrimidine derivatives” (priority 1985, dated 1988).
